Laboratory results: patent publication US6825217B2, “Carbinols for the treatment of neuropathic dysfunction” (Endo Pharmaceuticals, Inc., priority 2001, dated 2004)
Like-named read-outs stand apart in the source and are kept apart here.

Assays:
[1] = sometimes fatally; U.S. Food and Drug Administration; cited from earlier work
[2] = CCI rats, cited from earlier work
Mouse Tail-Flick = format: in vivo; settings: Mus musculus; read-out: Mouse Tail-Flick ED50 (unit inferred)
Rat Hot Plate = format: in vivo
[3] = Mouse antiphenylquinone writhing (PQW) test; format: in vivo; settings: Mus musculus
Procedure: (§1) The anti-phenylquinone writhing (PQW) test modified from the methods of Siegmund et al. (Proc. Soc. Exp. Biol. Med. 95: 729-731, 1957) and Blumberg et al. (Proc. Exp. Biol. Med. 118: 763-767, 1965) was used to assess the relief from the simulated symptoms of neuropathic pain in mice. Male CF1 mice (Charles River Breeding Laboratories, Wilmington, Mass.), fasted for 16-22 hours and weighing 18-23 g, were injected with randomized and coded doses of test compounds, then challenged with 1.25 mg/kg i.p. phenyl-p-benzoquinone (phenylquinone) 5 minutes prior to the specified observation time. The phenylquinone solution (0.1 mg/ml in 5% aqueous ethanol) was prepared daily and stored in foil-wrapped amber bottles to limit degradation. Mice were observed 10 minutes for the presence or absence of the characteristic abdominal constriction and stretching response beginning 30 minutes after injection of the test compound. Activity was calculated as the percentage of mice failing to respond to the phenylquinone challenge dose. […] Median effective doses (ED50's) and 95% confidence limits were determined numerically by the methods of Thompson (Bacteriological Rev. 11: 115-145, 1947), and Litchfield and Wilcoxon (J. Pharmacol. Exp. Ther. 96: 99-113, 1949).

Formalin model = format: in vivo; settings: rat, versus saline control
Text: Formalin induces inflammatory stimulation of peripheral nerves that results in sensitization of CNS nociceptive transmission pathways. There are two phases of formalin-induced nociception: phase I—an acute nociceptive component; and phase II—a chronic nociceptive component characterized by hyperalgesia.
On the morning of formalin testing, a small metal band (0.5 g) was loosely placed around the right hind paw. The rat was placed in a cylindrical Plexiglas chamber for adaptation for a minimum of 30 minutes. Compound A, venlafaxine or a saline control was administered into the dorsal surface of the right hindpaw of the rat. The animal was then placed into the chamber of the automated formalin apparatus where movement of the formalin-injected paw was monitored and the number of paw flinches tallied by minute over the next sixty minutes. Upon completion of the test the animal was removed and euthanized.

Rat PQW = format: in vivo; settings: Rattus norvegicus
Procedure: as §1

[4] = Chung model (tactile allodynia); format: in vivo, rat; settings: rat; two hours post injection; doses 200 mg/kg and 100 mg/kg
Procedure: This model for neuropathic pain was performed on rats using the surgical procedure described by Kim and Chung (1992) to induce an allodynic state. Briefly, the left L-5 and L-6 spinal nerves were isolated adjacent to the vertebral column and ligated with 6-0 silk suture distal to the dorsal root ganglion under isoflurane anesthesia. This model allows for spinal cord structural reorganization and growth of low threshold mechnoreceptor fibers from the spinal cord with synaptic connections and rewiring of the dorsal horn. This leads to spontaneous firing of invading sympathetic nerves and upregulation of receptors and voltage-dependent channels; i.e. mimics the development of allodynia (nociceptive response to a previously neutral stimulus). The rats were allowed a minimum of 7-days postoperative recovery period before testing.
To assess tactile thresholds in the Chung model, rats were placed in a clear plastic, wire mesh-bottomed cage, divided into individual compartments. Animals were allowed to acclimate and then baseline thresholds were assessed prior to drug treatment. To assess the 50% mechanical threshold for paw withdrawal, von Frey hairs were applied to the plantar mid-hindpaw, avoiding the tori (footpads). The eight von Frey hairs used are designated by [log (10*force required to bend hair, mg)] and range from 0.4-15.1 grams (#'s 3.61-5.18). Each hair was pressed perpendicularly against the paw with sufficient force to cause slight bending, and held for approximately 6-8 seconds. A positive response was noted if the paw was sharply withdrawn. Flinching immediately upon removal of the hair was also considered a positive response. Absence of a response (“−”) was cause to present the next consecutive stronger stimulus; a positive response (“+”) was cause to present the next weaker stimulus. Stimuli were presented successively until either six data points were collected, or the maximum or minimum stimulus was reached. If a minimum stimulus was reached and positive responses still occurred, the threshold was assigned an arbitrary minimum value of 0.25 grams; if a maximum stimulus was presented and no response occurred, a maximum threshold value of 15 grams was assigned. If a change in response occurs, either “−” to “+” or “+” to “−”, causing a change in the direction of stimulus presentation from descending to ascending or vice-versa, four additional data points were collected subsequent to the change.

Rat Tail-Flick = format: in vivo
[5] = tested on: subunit of a voltage-gated calcium channel; settings: cited from earlier work
GABA receptors = settings: cited from earlier work
[6] = intraperitoneal, high doses of up to 600 mg/kg
[7] = intraperitoneal 10 to 75 mg/kg, at two and four hours

Structure (SMILES): CCN1CCC(c2cccc(Cl)c2)(C(C)O)CC1 (stereo not shown)
- melting point: 89 to 94 °C

Structure (SMILES): CN1CCC(c2cccc(Cl)c2)(C(C)(C)O)C1 (stereo not shown)
- melting point: 98 to 99 °C

Structure (SMILES): CC(O)C1(c2cccc(Cl)c2)CCCN(C)CC1 (stereo not shown)
- melting point: 123 to 124 °C

Structure (SMILES): NC(=O)OCC(COC(N)=O)c1ccccc1 [Felbamate, felbamate]
- toxicity in humans [1]: liver failure and aplastic anemia
- heat hyperalgesia [2, 6]: completely abolished
- hindpaw guarding [2, 6]: completely abolished
- mechanical allodynia [2, 6]: completely abolished
- mechanical hyperalgesia [2, 6]: completely abolished
- responses in the control hindpaw ([2]; intraperitoneal): unaffected

Structure (SMILES): COc1cccc(C2(O)CCCCC2CN(C)C)c1 (stereo not shown) [TRAMADOL, Tramadol, reference compound]
- ED50 (Mouse Tail-Flick): 31.2 mg/kg
- ED50 (Rat Hot Plate; Rattus norvegicus): 40 mg/kg
- ED50 [3]: 7.8 mg/kg

Structure (SMILES): COc1ccc(C(CN(C)C)C2(O)CCCCC2)cc1 (stereo not shown) [Venlafaxine, reference compound]
- formalin test, paw flinches, phase I (Formalin model; all administered doses (200/100/50 mg per kg)): statistically significant effects
- formalin test, paw flinches, phase II (Formalin model; all administered doses): statistically significant effects only during phases I and IIA
- formalin test, paw flinches, phase IIA (Formalin model; all administered doses): statistically significant effects
- formalin test, paw flinches, Phase IIB (Formalin model): No statistical significance
- ED50 (Rat PQW): 39.2 mg/kg
- Rat Hot Plate ED50 (Rat Hot Plate; rat): Inactive
- effects on tactile allodynia [4]: statistically significant effects
- Rat Tail-Flick (Rat Tail-Flick): Inactive

Structure (SMILES): NCC1(CC(=O)O)CCCCC1 [gabapentin]
- responses on the control side [2]: no significant change
- heat hyperalgesia [2, 7]: suppressed
- mechanical allodynia [2, 7]: suppressed
- mechanical hyperalgesia ([2]; intraperitoneal 10 to 75 mg/kg): lacked effect
- responses at 24 hours ([2]; intraperitoneal, 24 hours): abnormal responses had returned
- pattern of effects after intrathecal injection ([2]; intrathecal to the lumbar spinal cord, 37.5 to 150 mcg/kg): the pattern was similar
- binding to a subunit of a voltage-gated calcium channel [5]: binds with high affinity
- effect on GABA receptors (GABA receptors): no direct effect
